Measured values as given in patent US12582677B2, “Methods for producing retinal tissue and retina-related cell” (SUMITOMO CHEMICAL COMPANY, LIMITED, priority 2011, dated 2026).

Columns and labels:
Human ES cells (KhES-1) = assay: Production of retinal pigment epithelium from human ES cell aggregates; type: cell-based; details: Matrigel and serum steps
Method: Human ES cells (KhES-1) were cultured according to the methods described in “Ueno, M. et al. PNAS 2006”, “Watanabe, K. et al. Nat Biotech 2007” and used for the experiment. As the medium, DMEM/F12 medium (Invitrogen) added with 20% KSR (Knockout Serum Replacement; Invitrogen), 0.1 mM 2-mercaptoethanol, 1 mM pyruvic acid, and 5 to 10 ng/ml bFGF was used. For the formation of retinal tissue by floating culture, the ES cells were dispersed into single cells by using 0.25% trypsin-EDTA (Invitrogen), suspended in a serum-free medium (100 μl) to 9×10^3 cells per well of a non-cell adhesive 96-well culture plate (SUMILON spheroid plate, SUMITOMO BAKELITE CO., LTD.) to allow for rapid formation of aggregates, and floating cultured at 37° C., 5% CO2. As the serum-free medium in this case, a serum-free medium obtained by adding 20% KSR, 0.1 mM 2-mercaptoethanol, 1 mM pyruvic acid, 20 μM Y27632 and a substance inhibiting the Wnt signal pathway (3 μM IWR1e) to G-MEM medium was used. Matrigel was added in an amount of 1/100 per volume from day 2 of the floating culture and floating culture was performed. The aggregate was transferred to a serum-free medium without containing a substance inhibiting the Wnt signal pathway on day 12 from the start of the floating culture, fetal calf serum in an amount of 1/10 per volume was added and cultured. […]

[1] = tested on: RAX::GFP knock-in human ES cells; assay: Production of optic-cup-like structure from human ES cell aggregates; type: cell-based; details: 3 μM CHIR99021 and 100 nM SAG together in serum-containing medium from day 15
Method: RAX::GFP knock-in human ES cells (derived from KhES-1) were cultured according to the methods described in “Ueno, M. et al. PNAS 2006”, “Watanabe, K. et al. Nat Biotech 2007” and used for the experiment. As the medium, DMEM/F12 medium (Invitrogen) added with 20% KSR (Knockout Serum Replacement; Invitrogen), 0.1 mM 2-mercaptoethanol, 1 mM pyruvic acid, and 5 to 10 ng/ml bFGF was used. For the formation of aggregate by floating culture, the ES cells were dispersed into single cells by using 0.25% trypsin-EDTA (Invitrogen), suspended in a serum-free medium (100 μl) to 9×10^3 cells per well of a non-cell adhesive 96-well culture plate (SUMILON spheroid plate, SUMITOMO BAKELITE CO., LTD.) to allow for rapid formation of aggregates, and floating cultured at 37° C., 5% CO2. As the serum-free medium in this case, a serum-free medium obtained by adding 20% KSR, 0.1 mM 2-mercaptoethanol, 1 mM pyruvic acid, 20 μM Y27632 and a substance inhibiting the Wnt signal pathway (3 μM IWR1e) to G-MEM medium was used. During the floating culture, Matrigel in an amount of 1/100 per volume was added from day 2 from the start of the floating culture. The floating aggregate was transferred to a serum-free medium without a substance inhibiting the Wnt signal pathway on day 12 from the start of the floating culture, fetal calf serum in an amount of 1/10 per volume was added and the aggregate was cultured. […]

Compound | retinal pigment epithelia on aggregates (bright-field) (Human ES cells (KhES-1); Activin A 100 ng/ml with 3 μM CHIR99021 from day 15, after IWR1e) | optic-cup-like structure formation on aggregate [1] | retinal pigment epithelium on aggregates (bright-field) (Human ES cells (KhES-1); 3 μM CHIR99021 from day 15, after IWR1e)
Activin A: substance acting on the Activin signal pathway; Recombinant Human/Mouse/Rat Activin A (R&D systems #338-AC) | almost all the surfaces of the aggregates were covered with retinal pigment epithelia | – | –
Cc1c[nH]c(-c2cnc(NCCNc3ccc(C#N)cn3)nc2-c2ccc(Cl)cc2Cl)n1 [CHIR99021] | – | a clear optic-cup-like structure was formed | emerged on almost all surfaces of the aggregates
